Results on ten compounds are retold here after patent US4355101A, “Phenylmercaptoazole compounds” (Polaroid Corporation, priority 1981, dated 1982).

Molecules are shown by their SMILES. Read-outs that look alike come from different tables or passages of the source. Bounds are passed on as bounds.

Data set [1] in a line: pKa of substituents on the phenyl ring, measured for unblocked phenylmercaptotetrazole compounds. Type of data set: physicochemical. Conditions: substituent on phenyl ring of unblocked phenylmercaptotetrazole. The source says: Table I lists the pKa of various substituents on the phenyl ring as measured for unblocked phenylmercaptotetrazole compounds.
Data set [2] is described as follows: Solubility product of the silver salt. Type of data set: physicochemical. Particulars: for Effect of pH / ionization on solubility of the silver salt: pH 7 vs pH 13.5.
A short description of data set [3]: Solubility of the silver salts in the presence of excess amounts of their anions. Particulars: for Solubility of silver salt (total silver): 4×10^-3 molar in silver. Type of data set: physicochemical. Here is the method:
The solubilities of the silver salts of PMT and compound VIII in the presence of excess amounts of their anions were measured at pH 7.0 and 13.5. Each solution was 4×10^-3 molar in silver. The results are shown in Table III wherein the solubility data is expressed in μ moles/liter of total silver.

For data set [4] the following is noted: pH 7; Z.C.H. Tan, Photogr. Sci. Eng. 19, 17 (1975); cited from earlier work.
Setting [5] is: Molar ratio Compound/Ag 1.25/1, pH 7.0.
[6] abbreviates: Molar ratio Compound/Ag 1.25/1, pH 13.5.
[7] abbreviates: Molar ratio Compound/Ag 1.75/1, pH 7.0.
Where [8] appears, read: Molar ratio Compound/Ag 1.75/1, pH 13.5.
Setting [9] is: Molar ratio Compound/Ag 2.13/1, pH 7.0.
[10] abbreviates: Molar ratio Compound/Ag 2.13/1, pH 13.5.
The mark [11] stands for this setting: Molar ratio Compound/Ag 2.5/1, pH 7.0.
[12] abbreviates: Molar ratio Compound/Ag 2.5/1, pH 13.5.
[13] abbreviates: Molar ratio Compound/Ag 4.5/1, pH 7.0.
The mark [14] stands for this setting: Molar ratio Compound/Ag 4.5/1, pH 13.5.
Setting [15] is: Molar ratio Compound/Ag 7.5/1, pH 7.0.
The mark [16] stands for this setting: Molar ratio Compound/Ag 7.5/1, pH 13.5.

In turn, `NS(=O)(=O)c1ccc(-n2nnnc2S)cc1` [(p) SO2 NH2, 1-(4-sulfonamidophenyl)-5-mercaptotetrazole] displayed a pKa in data set [1] of 9.95 ± 0.1.
Still for that read-out and setting: the value for `Oc1ccccc1-n1nnnc1S` [(o) OH] was 9.5 ± 0.1; that for `Oc1ccc(-n2nnnc2S)cc1` [(p) OH, 1-(4-hydroxyphenyl)-5-mercaptotetrazole] was 10.1 ± 0.1; that for `Cc1ccc(S(=O)(=O)Nc2ccc(-n3nnnc3S)cc2)cc1` was 8.8 ± 0.1.
The same measure, in the same setting: the value for `CNS(=O)(=O)c1ccc(-n2nnnc2S)cc1` [(p) SO2 NHCH3] was 11.55 ± 0.1.
On the same count and under the same terms, the value for `CS(=O)(=O)Nc1ccc(-n2nnnc2S)cc1` [(p) NHSO2 CH3] was 8.65 ± 0.1.
For `CC(=NO)c1ccc(-n2nnnc2S)cc1` [IX], the “Ksp of silver salt” value was ~ 1 × 10^-16 in data set [2] (pH 7) and 2 × 10^-15 in data set [2] (pH 13.5). Moreover, the “Effect of pH / ionization on solubility of the silver salt” value in data set [2] is given as “increased the solubility of the silver salt of the compound VIII by an order of magnitude”. The “Solubility of silver salt (total silver)” value in data set [3] (setting [5]) was less than 1 μ moles/liter; in data set [3] (setting [6]) it was 19 μ moles/liter; in data set [3] (setting [7]), less than 1 μ moles/liter; in data set [3] (setting [8]), 44 μ moles/liter; in data set [3] (setting [9]), less than 1 μ moles/liter; in data set [3] (setting [10]), 93 μ moles/liter. For the same compound, the “Solubility of silver salt (total silver)” value in data set [3] (setting [11]) was determined as 2 μ moles/liter; in data set [3] (setting [12]), 140 μ moles/liter; in data set [3] (setting [13]) it was 2 μ moles/liter; in data set [3] (setting [14]), 320 μ moles/liter; in data set [3] (setting [15]), 5 μ moles/liter; in data set [3] (setting [16]) it was 1400 μ moles/liter. Besides, in data set [3] (high pH), the Silver solvent action result was “weak to moderate silver solvent”. Further, the “Solubility of silver salt compared with PMT” value in data set [3] (neutral solution) is recorded as “even less soluble salt in neutral solution than does PMT”.
For `Sc1nnnn1-c1ccccc1` [PMT, 1-phenyl-5-mercaptotetrazole], in data set [2], the “Effect of pH / ionization on solubility of the silver salt” value is recorded as “relatively unaffected by pH”. The “Ksp of silver salt” value in data set [2] (pH 13.5) is recorded as 4 × 10^-16; in data set [4], ~3 × 10^-16. In addition, the “Solubility of silver salt (total silver)” value in data set [3] (setting [5]) is listed as less than 1 μ moles/liter; in data set [3] (setting [6]), 1 μ moles/liter; in data set [3] (setting [7]), less than 1 μ moles/liter; in data set [3] (setting [8]), 2 μ moles/liter; in data set [3] (setting [9]), 1 μ moles/liter; in data set [3] (setting [10]), 4 μ moles/liter. Also, the “Solubility of silver salt (total silver)” value is recorded as 3 μ moles/liter in data set [3] (setting [11]); 8 μ moles/liter in data set [3] (setting [12]); 15 μ moles/liter in data set [3] (setting [13]); 18 μ moles/liter in data set [3] (setting [14]); 58 μ moles/liter in data set [3] (setting [15]); 63 μ moles/liter in data set [3] (setting [16]).
`O=S(=O)(Nc1ccccc1)c1ccc(-n2nnnc2S)cc1` returned a pKa in data set [1] of 9.55 ± 0.1.
On the same count and under the same terms, the value for `CC(=NO)c1ccc(-n2nnnc2S)cc1` [drawing 14] was 11.4.

A word on the pKa: it is the negative logarithm of the acid dissociation constant.
